Measured values: patent publication US5128338A, “Imidazo [1,2-c] quinazoline compounds” (priority 1990, dated 1992)
Read-outs that look alike come from different tables or passages of the source.

Tests used:
[1] = biological target: T1, peripheral receptors for benzodiazepines ([^3 H]-R05-4864) (Rattus norvegicus, UniProt P16257); test: Displacement of [3H]-R05-4864, rat heart microsomal fractions; assay type: binding; settings: corrected for DMSO, read-out: K0.5, peripheral receptors, [^3 H]--RO 54864;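 note: Read-out is filter-retained bound radioligand, separated from free ligand by vacuum filtration over GF/C and counted by liquid scintillation, with compounds first dissolved in DMSO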
T1 construct: on microsomal fractions from rat heart; from tissue; host or cells: rat heart, microsomal fractions

[2] = tested on: porcine coronary; test: Porcine coronary relaxation (PGF2α-precontracted coronary segments); parameters: species or system pig (Yucatan mini pig); settings: for EC20 / EC50: Sus scrofa; for EC20: read-out: DE20, effect on coronary tension induced by PGF2α; for EC50: read-out: DE50, effect on coronary tension induced by PGF2α
Method: All the products studied were dissolved in DMSO at a concentration of 10^-2 M, then diluted to the desired concentrations in the experimental media. All of the ED20, ED50 and K0.5 values were corrected for the values obtained with DMSO under the same conditions of dilution.
Coronaries were taken on the heart of pigs (Yucatan mini pig), anesthetized under stresnil and pentobarbital. Proximal segments of the coronary were placed in an organ tank filled with Ringer solution at 37° C. The segments were tightened progressively to a base tension of around 6 g and contracted by the addition of PGF2α at a concentration of 4.10^-6 M. The potential of the products of the present invention to relax the coronary artery were then tested.
All of the compounds were tested for their capacity to relax the porcine coronary precontracted by PGF2α.

[3] = biological target: T2, peripheral receptors for benzodiazepines ([^3 H]-PK 11195) (Rattus norvegicus, UniProt P16257); test: Displacement of [3H]-PK 11195, rat heart microsomal fractions; assay type: binding; settings: corrected for DMSO, read-out: K0.5, peripheral receptors, [^3 H]--PK 11195;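 note: radioligand binding with bound label split from free by vacuum filtration, then quantified through liquid scintillation counting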
T2 construct: on microsomal fractions from rat heart; from tissue; host or cells: rat heart, microsomal fractions

[4] = porcine coronary segments, PGF2α 4.10^-6 M
[5] = porcine coronary segments, 37° C., PGF2α 4.10^-6 M, corrected for DMSO

Structure (SMILES) | IC50 [1] [µM] | Effect on coronary tension induced by PGF2α (in words) [2, 4] | IC50 [3] [µM] | EC20 [2, 5] [µM] | EC50 [2, 5] [µM] | level of relaxation obtained as well as the 50% effect value (K0.5) obtained by displacement ([2]; overall judgement of relaxation and K0.5) | EC20 [2] [µM] | EC50 [2] [µM]
O=C(c1ccccc1)c1cn2c(=O)[nH]c3ccccc3c2n1 [Example 9, 2-benzoyl-5-oxo-5,6-dihydroimidazo[1,2-c]quinazoline] | 13 | No effect | 28 |  |  |  |  | 
CCN(CC)C(=O)Cn1c(=O)n2cc(C(=O)c3ccccc3)nc2c2ccccc21 [Example 6, 2-Benzoyl-6-N,N-diethylaminocarbonylmethyl-5-oxo-5,6-dihydroimidazo[1,2-c]quinazoline] | 0.2 |  | 0.22 |  |  |  |  | 
CCOC(=O)c1cn2c(=O)n(Cc3ccccc3)c3ccccc3c2n1 [Example 10, 2-ethoxycarbonyl-6-benzyl-5-oxo-5,6-dihydroimidazo[1,2-c]quinazoline] | 8.8 |  | ~100 | 3.33 | 1.04 | particularly favorable |  | 
CCOC(=O)c1cn2c(=O)n(CC(=O)N(CC)CC)c3ccccc3c2n1 [Example 2, 2-Ethoxycarbonyl-6-N,N-diethylaminocarbonylmethyl-5-oxo-5,6-dihydroimidazo[1,2-c]quinazoline] |  |  | 0.55 |  |  |  |  | 
O=c1[nH]c2ccccc2c2nc(-c3ccccc3)cn12 [Example 3, 2-Phenyl-5-oxo-5,6-dihydroimidazo[1,2-c]quinazoline] | > 100 |  | 4.5 | 35.4 | 7.48 |  |  | 
Cn1c(=O)n2cc(-c3ccccc3)nc2c2ccccc21 [Example 29, 2-phenyl-6-methyl--5-oxo-5,6-dihydroimidazo[1,2-c]quinazoline] | > 100 |  | > 100 | > 100 | > 100 |  |  | 
CCN(CC)C(=O)Cn1c(=O)n2c(C)c(-c3ccccc3)nc2c2ccccc21 [Example 20, 2-phenyl-3-methyl-6--N,N-diethylaminocarbonylmethyl-5-oxo-5,6-dihydroimidazo[1,2-c]quinazoline] | 0.0086 |  |  | 3.46 | 0.87 |  |  | 
CCC(C)N(C)C(=O)c1cc2ccccc2c(-c2ccccc2Cl)n1 (stereo not shown) [PK 11195, reference compound] |  |  |  |  |  |  | 9.13 | 1.66
CN1C(=O)CN=C(c2ccc(Cl)cc2)c2cc(Cl)ccc21 [Example R05-4864, reference compound] |  |  |  |  |  |  | 9.38 | 1.48
CCOC(=O)c1cn2c(=O)n(C)c3ccccc3c2n1 [Example 8, 2-ethoxycarbonyl-6-methyl-5-oxo-5,6-dihydroimidazo[1,2-c]quinazoline] | 30 | No effect | > 100 |  |  |  |  | 
CN1C(=O)CN=C(c2ccccc2)c2cc(Cl)ccc21 [Diazepam, diazepam, reference compound] |  |  |  |  |  |  | 16.4 | 
CCN(CC)C(=O)Cn1c(=O)n2c(CN(C)C)c(-c3ccccc3)nc2c2ccccc21 [Example 5, 2-Phenyl-3-dimethylaminomethyl-6-N,N-diethylaminocarbonylmethyl-5-oxo-5,6-dihydroimidazo[1,2-c]quinazoline] | 4.5 |  | 2.2 | 144 | 18.9 |  |  | 
CN1CCN(C(=O)Cn2c(=O)n3cc(-c4ccccc4)nc3c3ccccc32)CC1 [Example 12, 2-phenyl-6-N-methylpiperazinocarbonylmethyl-5-oxo-5,6-dihydroimidazo[1,2-c]quinazoline] | 40 |  | 80 | 587 | 31.9 |  |  | 
CCOC(=O)COc1ccc2c(=O)cc(-c3ccccc3)oc2c1 [Efloxate, efloxate, reference compound] | 200 |  | 20 | 35.8 | 3.94 |  |  | 
CCN(CC)C(=O)Cn1c(=O)n2cc(-c3ccccc3Cl)nc2c2ccccc21 [Example 30, 2-(o-chlorophenyl)-6-N,N-diethylaminocarbonylmethyl-5-oxo-5,6-dihydroimidazo[1,2-c]quinazoline] | 0.034 |  | 0.28 | 73.9 | 10.4 |  |  | 
